Results reported in patent publication US20060135612A1, “Method of ameliorating or abrogating the effects of a neurodegenerative disorder, such as amyotrophic lateral sclerosis (ALS), by using a HDAC inhibiting agent” (U.S. Department of Veterans Affairs, priority 2004, published 2006).
Where two headings read alike, the source gives them in different places.

Tests used:
G93A mice [1] = experiment: Motor performance on rotarod; assay type: in vivo; details: most efficacious doses, after 13 wks through endstage disease
Body weight = assay type: in vivo; details: G93A mice, beginning after 100 days
G93A transgenic ALS mice = details: for Survival (Days ± SD) / Percentile change (survival extension): G93A mice; for Percentile change (survival extension): vs 0 mg/kg/d
Experimental: We have standardized criteria to ensure homogeneity of the cohorts within the testing groups. Mice were randomized from 24 litters all within 4 days from the same ‘f’ generation. Body weights were taken at 20 days and mice were equally distributed according to weight within each experimental cohort. Mice under 8 g at 20 days were excluded from the experiments.
Intraperitoneal Dosing: Based upon previous studies (Reference 29), a dose response study was performed, treating groups (n=20) of wild type and G93A mice with 200, 600, 1,200, 2,000 and 5,000 mg/kg by daily intraperitoneal injection (100 μl) of sodium butyrate (Acros Organics/Fisher Scientific, Fairlawn, N.J.) dissolved in PBS and made fresh daily. Additional groups of mice were treated in the same manner with 100, 200, 400, 600, and 800 mg/kg of phenylbutyrate (Triple Crown America, Inc. Perkasie, Pa.). Control groups of G93A mice were treated with PBS injection (vehicle). Approximately 260 mice were used for behavioral and survival analyses.
Motor performance and ability to feed was closely monitored and used as the basis for determining when to euthanize the mice. The criterion for euthanization was the point in time the ALS mice were unable to right themselves after being placed on their back for 30 seconds. Some deaths occurred overnight and were recorded the following morning.

G93A mice [2] = details: at 120 days, PBS-treated 4,680.6±847.4, WT 11,580.9±221.2
G93A mice [3] = details: 120 days; for reactive astrogliosis (GFAP immunostaining): G93A mice spinal cord sections; for gross spinal cord atrophy: G93A mice
bcl-2 promoter = bcl-2 promoter activity assay in transfected N2a cells; assay type: cell-based
Experimental: Promoter Activity Assay: […] Vincent Bours (University of Liege, Belgium) (Reference 41). The bcl-2 Luc-reporter plasmids containing the fragment from -3934 to -8 from the bcl-2 promoter was also generous gift from Dr. L. Boxer (Stanford University, California). […] All promoter assays were performed in duplicates. Enzyme activities were normalized to the protein concentration of the extracts.

ALS mice = details: References 10 and 11; cited from earlier work
humans with ALS = details: cited from earlier work
[4] = system: N2a mutant SOD (G41D) cells; details: 1 mM, 12 hr pretreatment, X/XO 6 hr, MTT, vs untreated cells
Experimental: (§1) N2a Cell Culture: N2a monolayer cell cultures were grown in 50% DMEM and 50% OPTI-MEM with 5% fetal bovine serum (FBS), 1% antibiotic antimycotic, and 400 microgram/ml of the neomycin analog G418. Differentiation was induced within 3 days in serum-free medium. The SOD1 mutation (G41D) was introduced into a plasmid clone of human genomic SOD1 (pHGSOD-SVneo). Stably transfected lines of N2a cells were selected with the drug G418, after transfection with SOD1 pHGSOD-SVneo plasmids. Differentiated cells were incubated without FBS for 6 days before treatments. […] Cell viability was measured by MTT assay.

WT and WT-SOD1 N2a cells = details: MTT
Experimental: as §1

G93A mice [5] = details: at 17 weeks, vs untreated G93A mice
Experimental: Clinical Assessment: Both motor performance and body weight were measured throughout the study. Training sessions were given on days 21 and 22 to acclimate the mice to the rotarod apparatus (Columbus Instruments, Columbus, Ohio). Motor performance (constant rotation at 16 rpm) was assessed weekly from 23-100 days of age and twice weekly from 101 days of age. Three 60 sec trials were given during each session and averaged. Body weights were recorded twice weekly at the same time of day. Gait analysis was performed measuring stride length (Reference 49).

NF-κB p50 [6] = details: G93A mice, vs WT and vehicle-treated
Experimental: (§2) Western Blotting: Tissue lysates and subcellular fractions were prepared using an ice-cold cell extraction buffer containing 50 mM Tris-HCl, pH 7.4, 150 mM NaCl, 2 mM EDTA, 1% Triton X-100, 1 mM phenylmethylsulfonyl fluoride (PMSF), 10 mg/ml leupeptin, 1 μM pepstatin, 1 mM N-ethylmleimide (NEM), 2 mM Na3VO4, 20 mM sodium pyrophosphate, and 50 mM NaF). Lysates were centrifuged at 15,000 rpm at 4° C. for 30 min. Then the protein concentration was quantified and samples were boiled for 10 min with Laemmli buffer (15 is 100 mM Tris-HCL, pH 6.8, 4% SDS, 200 mM dithiothreitol, 20% glycerol, 2% SDS, 0.2% bromophenol blue, 10 μg/ml aprotinin, 10 μg/ml leupeptin) at 100° C. In general, 30 μg of proteins were electrophoresed on 10% SDS-polyacrylamide gel and transferred to nitrocellulose membrane. Membranes were blocked in 5% skim milk in TBST (Tris, pH 7.4; 150 mM NaCl; 0.05% Tween 20) for 30 min at room temperature. Blots were probed with primary antibodies overnight at 4 ° C. […] HRP-conjugated secondary IgG anti-Rabbit IgG and anti-mouse IgG (Bio-Rad Laboratories, Inc., Hercules, Calif.) were used at 1:5000 and 1:3000, respectively. HL-60 Cell lysates were used as positive controls (Upstate Biotechnology, Lake Placid, N.Y.).

activated caspase 3 = details: G93A mice, 120 days, vs untreated
Experimental: as §2

activated caspase 9 = details: G93A mice, 120 days, vs untreated
Experimental: as §2

bcl-2 [7] = details: G93A mice, vs vehicle-treated
Experimental: as §2

cytochrome c = details: G93A spinal cord, 120 days, vs PBS-treated
Experimental: as §2

plκB [8] = details: G93A mice
Experimental: as §2

[9] = system: histone 3 and histone 4 acetylation; details: treated WT and G93A mice
acetylated NF-κB p50 = details: 1 mM
Experimental: (§3) Freshly isolated spinal cords from wild type and G93A mice were minced and incubated with neurobasal medium for 12 hr. […] After incubation, the tissues were harvested and equally divided for Western blot analysis and RT-PCR.
Detection of Acetylated NF-κB p50: For detection of the levels of acetylated NF-κB p50, 200 μg of nuclear extracts were diluted to a total volume of 500 microliter in lysis buffer (100 mM Tris buffer, pH7.4, containing 1% Triton X-100, 150 mM NaCl, 1 mM sodium orthovanadate, 5 mM sodium fluoride, 3 mM PMSF, 3 mM DTT, 0.5 mg/m leupeptin, and 10 mg/ml aprotinin) and incubated with 7 μl of goat anti-p50 antibody (Santa Cruz, Santa Cruz, Calif.) by shaking overnight at 4° C. Thirty-two μl of protein A-sepharose (50% v/v slurry) was added to lysates and left for 1 hr at 4° C. Beads were collected by centrifugation and washed twice with lysis buffer, once in PBS and finally resuspended with 40 μl of 2×SDS loading buffer. Samples were boiled and a 20 μl aliquot was separated in a 10% SDS-PAGE. After transferring the proteins to a nitrocellulose membrane acetylated p50 proteins were detected in Western blot analysis using an acetyl lysine-specific antibody (AbCam, Cambridge, Mass. at 1:1000).

bcl-2 [10] = details: spinal cord tissue cultures, 1 mM, time-dependent
Experimental: as §3
as §2, with “HL-60 Cell lysates were used as positive controls (Upstate Biotechnology, Lake Placid, N.Y.).” left out

plκB [11] = details: spinal cord tissue cultures, 1 mM, time-dependent
Experimental: as §3
as §2, with “HL-60 Cell lysates were used as positive controls (Upstate Biotechnology, Lake Placid, N.Y.).” left out

bcl-2 mRNA = details: spinal cord tissue cultures, ex vivo administration
Experimental: as §3

NF-κB p50 [12] = details: N2a cells, 1 mM for three hours
Experimental: (§4) Immunofluorescence Staining and Microscopy: Indirect labeling methods were used to determine plκB and NF-κB p50 in N2aCells. […] The cells were washed with warm PBS and fixed at room temperature for 15 min with 4% paraformaldehyde (PFA). After washing with PBS, fixed cells were incubated with blocking solution containing 0.3% Triton X-100, 5% bovine serum albumin, and 3% goat serum for 1 hr, followed by incubation with primary antibodies overnight at 4° C. After three washes with PBS, the cells were incubated for 1 hr with FITC-conjugated (1:200 dilution) and Cy3-conjugated secondary antibody (1:200 dilution; Vector Laboratories, Burlingame, Calif.). The slides were washed three times with PBS and mounted with fluorochrome mounting solution. Images were analyzed using a fluorescence microscope. Control experiments were performed in the absence of primary antibody.

plκB [13] = details: N2a cells, 1 mM for three hours
Experimental: as §4

Molecule: CCCC(=O)[O-].[Na+] [NAB, sodium butyrate]
- motor performance (rotarod) (G93A mice [1]): significantly improved
- body weight loss (Body weight): significantly reduced
- Survival (Days ± SD) (G93A transgenic ALS mice; 200 mg/kg/d i.p.): 129.2 ± 4.5 days
- Survival (Days ± SD) (G93A transgenic ALS mice; 600 mg/kg/d i.p.): 141.8 ± 5.9 days
- Percentile change (survival extension) (G93A transgenic ALS mice; 600 mg/kg/d i.p.): 12.5%
- Survival (Days ± SD) (G93A transgenic ALS mice; 1200 mg/kg/d i.p.): 151.3 ± 6.8 days
- Percentile change (survival extension) (G93A transgenic ALS mice; 1200 mg/kg/d i.p.): 20%
- time to death (mice became moribund and died) (mice; 2 g/kg/d i.p.): 1 to 9 days
- time to sudden death (mice; 4 g/kg/d i.p.): 0.5 to 1.0 h
- estimated number of ventral horn neurons, lumbar cord (G93A mice [2]; 1.2 g/kg/d i.p. from 21 days): 9,604.4±346.2
- reactive astrogliosis (GFAP immunostaining) (G93A mice [3]): reduced
- gross spinal cord atrophy (G93A mice [3]; 1.2 g/kg/d): ameliorated

Molecule: COc1cc(/C=C/C(=O)CC(=O)/C=C/c2ccc(O)c(OC)c2)ccc1O [Curcumin]
- effect on PBA-induced bcl-2 promoter activity (bcl-2 promoter; N2a cells, with PBA): dose-dependently blocked

Molecule: [O-][n+]1cccc(/C(Cl)=N/OC[C@H](O)CN2CCCCC2)c1 [arimoclomal]
- survival extension (ALS mice): 22%

Molecule: Nc1nc2ccc(OC(F)(F)F)cc2s1 [riluzole]
- extension of life (humans with ALS): 10-15%

Molecule: sodium phenylbutyrate [PBA]
- improvement of cell viability [4]: 34.7%
- protection against X/XO-induced cell death (WT and WT-SOD1 N2a cells): protects
- motor performance (rotarod) (G93A mice [1]): significantly improved
- body weight loss (Body weight): significantly reduced
- stride length (G93A mice [5]): markedly improved
- expression of NF-κBp50 (NF-κB p50 [6]): Marked increased expression
- activated caspase 3 (Western blot) (activated caspase 3): significantly reduces
- activated caspase 9 (Western blot) (activated caspase 9): significantly reduces
- Bcl-2 expression in spinal cord sections (bcl-2 [7]): restored to WT levels
- release of cytochrome c into the cytosol of neurons (cytochrome c): dramatic reduction
- phosphorylation of lκB in the ventral horn (plκB [8]): increased
- histone 3 and histone 4 acetylation (Western blot) [9]: markedly increased
- time of induced NF-κBp50 acetylation (acetylated NF-κB p50; spinal cord tissue cultures from G93A mice): 3 to 6 h
- time of induced NF-κBp50 acetylation (acetylated NF-κB p50; spinal cord tissue cultures from WT mice): 6 to 24 h
- bcl-2 protein (bcl-2 [10]): increased
- plκB protein (plκB [11]): increased
- mRNA upregulation of bcl-2 (bcl-2 mRNA): induced at 3 hours and sustained until 12 hours
- increase of bcl-2 promotor activity (bcl-2 promoter; N2a cells transfected with bcl-2 reporter plasmids): 90%
- induction of bcl-2 promotor activity (bcl-2 promoter; N2a cells transfected with bcl-2 reporter plasmids, after 24 h of incubation): approximately 2 fold
- transactivation of wild type κB site bcl-2 promotor (bcl-2 promoter; N2a cells, transfection assay): transactivates
- nuclear translocation of NF-κB p50 immunofluorescence (NF-κB p50 [12]): increased
- cytosolic plκB immunofluorescence (plκB [13]): increased
- Survival (Days ± SD) (G93A transgenic ALS mice; 200 mg/kg/d i.p.): 136.5 ± 5.5 days
- Percentile change (survival extension) (G93A transgenic ALS mice; 200 mg/kg/d i.p.): 8.6%
- Survival (Days ± SD) (G93A transgenic ALS mice; 400 mg/kg/d i.p.): 153.2 ± 6.4 days
- Percentile change (survival extension) (G93A transgenic ALS mice; 400 mg/kg/d i.p.): 21.9%
- survival benefit (G93A transgenic ALS mice; transgenic SOD1 mice, this study, dose not stated): 22%
- morbidity and mortality (mice; 600 mg/kg/d i.p.): morbidity and mortality
- morbidity and mortality (mice; 800 mg/kg/d i.p.): morbidity and mortality
- estimated number of ventral horn neurons, lumbar cord (G93A mice [2]; 400 mg/kg/d i.p. from 21 days): 10,378.4±304.4
- reactive astrogliosis (GFAP immunostaining) (G93A mice [3]): reduced
- gross spinal cord atrophy (G93A mice [3]; 400 mg/kg/d): ameliorated
